Laboratory results as given in patent publication US10098350B2, “Fungicidal amides” (E. I. DU PONT DE NEMOURS AND COMPANY, priority 2013, dated 2018).

Legend:
Type in all cases: in vivo
Botrytis cinerea = assay: Test A: tomato seedlings sprayed with test suspension, inoculated with Botrytis cinerea (gray mold), visual disease rating; settings: Cmpd. No. unmarked; 100 = 100% disease control, 0 = no control relative to controls
Text: (§1) General protocol for preparing test suspensions for Tests A-E: the test compounds were first dissolved in acetone in an amount equal to 3% of the final volume and then suspended at the desired concentration (in ppm) in acetone and purified water (50/50 mix by volume) containing 250 ppm of the surfactant Trem® 014 (polyhydric alcohol esters). The resulting test suspensions were then used in Tests A-E. Samples were applied to plants at either a 10 ppm (**), 40 ppm, 50 ppm (*) or 200 ppm (#) test solution to the point of run-off on the test plants with the equivalent of a rate of 40 g ai/ha, 160 g ai/ha, 200 g ai/ha, or 800 g ai/ha, respectively.
The test suspension was sprayed to the point of run-off on tomato seedlings. The following day the seedlings were inoculated with a spore suspension of Botrytis cinerea (the causal agent of gray mold on many crops) and incubated in a saturated atmosphere at 20° C. for 48 h, and moved to a growth chamber at 27° C. for 2 days, after which time visual disease ratings were made.
(§2) Results for Tests A-E are given in Table A. In the Table, a rating of 100 indicates 100% disease control and a rating of 0 indicates no disease control (relative to the controls). A dash (-) indicates no test results.

[1] = test system: Stagonospora nodorum (also known as Septoria nodorum); assay: Test B: wheat seedlings sprayed with test suspension, inoculated with Stagonospora nodorum (wheat glume blotch), visual disease rating
Text: as §1
(§3) The test suspension was sprayed to the point of run-off on wheat seedlings. The following day the seedlings were inoculated with a spore suspension of Stagonospora nodorum (also known as Septoria nodorum; the causal agent of wheat glume blotch) and incubated in a saturated atmosphere at 20° C. for 48 h, and then moved to a growth chamber at 20° C. for 6 days, after which time visual disease ratings were made.
as §2

[2] = test system: Puccinia recondite f. sp. tritici; assay: Test D: wheat seedlings sprayed with test suspension, inoculated with Puccinia recondite f. sp. tritici (wheat leaf rust), visual disease rating
Text: as §1
as §3, with “Puccinia recondite f. sp. tritici; (the” for “Stagonospora nodorum (also known as Septoria nodorum; the”, “leaf rust)” for “glume blotch)”, “24” for “48”
as §2

[3] = test system: Erysiphe graminis f. sp. tritici; assay: Test E: wheat seedlings sprayed with test suspension, inoculated with Erysiphe graminis f. sp. tritici (wheat powdery mildew), visual disease rating
Text: as §1
The test suspension was sprayed to the point of run-off on wheat seedlings. The following day the seedlings were inoculated with a spore dust of Erysiphe graminis f. sp. tritici, (the causal agent of wheat powdery mildew) and incubated in a growth chamber at 20° C. for 7 or 8 days, after which time visual disease ratings were made.
as §2

Septoria tritici = assay: Test C: wheat seedlings sprayed with test suspension, inoculated with Septoria tritici (wheat leaf blotch), visual disease rating
Text: as §1
The test suspension was sprayed to the point of run-off on wheat seedlings. The following day the seedlings were inoculated with a spore suspension of Septoria tritici (the causal agent of wheat leaf blotch) and incubated in a saturated atmosphere at 24° C. for 48 h, and then moved to a growth chamber at 20° C. for 21 days, after which time visual disease ratings were made.
as §2

[4] = Cmpd. No. unmarked, 100 = 100% disease control, 0 = no control relative to controls
[5] = Cmpd. No. marked '**' (other test rate; meaning of mark not shown)
[6] = Cmpd. No. marked '*' (other test rate; meaning of mark not shown)

Structure (SMILES)	Test B rating (% disease control) [1, 4] [%]	Test D rating (% disease control) [2, 4] [%]	Test E rating (% disease control) [3, 4] [%]	Test C rating (% disease control) (Septoria tritici; [4]) [%]	also measured
Cn1cc(C(=O)N(Cc2cc(-n3ccc(C(F)(F)F)n3)ccc2Br)C2CC2)c(C(F)F)n1 [compound 32]	0	0	97		Test A rating (% disease control) (Botrytis cinerea): 0%
Cc1ccc(C(C)N(C(=O)c2cn(C)nc2C(F)F)C2CC2)cc1-n1ccc(C(F)(F)F)n1 (stereo not drawn) [compound 26]	99	0	81		Test A rating (% disease control) (Botrytis cinerea): 0%
Cn1cc(C(=O)N(Cc2c(Cl)cc(-n3cccn3)cc2Cl)C2CC2)c(C(F)F)n1 [compound 24]	100	99	90		Test A rating (% disease control) (Botrytis cinerea): 0%
COc1cc(-n2ccc(C(F)(F)F)n2)ccc1CN(C(=O)c1c(C(F)F)nn(C)c1F)C1CC1 [compound 25]	100	100	98		Test A rating (% disease control) (Botrytis cinerea): 0%
Cn1cc(C(=O)N(Cc2c(Cl)cc(-n3ccc(C(F)(F)F)n3)cc2Cl)C2CC2)c(C(F)F)n1 [compound 36]	99	99	90		Test A rating (% disease control) (Botrytis cinerea): 0%
Cn1cc(C(=O)N(Cc2cc(-n3ccc(C(F)(F)F)n3)ccc2C2CC2)C2CC2)c(C(F)F)n1 [compound 33]	98	68	94		Test A rating (% disease control) (Botrytis cinerea): 0%
Cn1nc(C(F)F)c(C(=O)N(Cc2ccc(-n3ccc(C(F)(F)F)n3)cc2C(F)(F)F)C2CC2)c1F [compound 37]	100	97	99		Test A rating (% disease control) (Botrytis cinerea): 0%
Cn1nc(C(F)F)c(C(=O)N(Cc2ccc(-n3cnc(Br)n3)cc2Cl)C2CC2)c1F [compound 147]	0	0	0	93	
CC(c1ncc(-n2cc(Cl)cn2)cc1Cl)N(C(=O)c1c(C(F)F)nn(C)c1F)C1CC1 (racemic) [compound 97]					Test B rating (% disease control) [1, 5]: 100%; Test C rating (% disease control) (Septoria tritici; [5]): 97%; Test D rating (% disease control) [2, 5]: 94%; Test E rating (% disease control) [3, 5]: 94%
Cn1nc(C(F)F)c(C(=O)N(Cc2c(Cl)cc(-n3ccc(Br)n3)cc2Cl)C2CC2)c1F [compound 132]	100	100	91	99	
CC(c1cc(-n2ccc(C(F)(F)F)n2)cc(C(F)(F)F)c1)N(C(=O)c1c(C(F)F)nn(C)c1F)C1CC1 (stereo not drawn) [compound 56]	100	86	92	97	
Cn1nc(C(F)F)c(C(=O)N(Cc2ccc(-n3cc(Cl)cn3)cc2Cl)C2CC2)c1F [compound 143]	100	99	99	99	
Cn1cc(C(=O)N(Cc2c(F)cc(-n3ccc(C(F)(F)F)n3)cc2F)C2CC2)c(C(F)F)n1 [compound 71]	92	0	91	99	
Cc1ccc(-n2ccc(C(F)(F)F)n2)cc1C(C)N(C(=O)c1c(C(F)F)nn(C)c1F)C1CC1 (stereo not drawn) [compound 52]	100	93	99	99	
Cn1cc(C(=O)N(Cc2ccc(-n3ccc(Br)n3)cc2Cl)C2CC2)c(C(F)F)n1 [compound 49]	98	9	69	99	
CC(c1ccc(C(F)(F)F)c(-n2ccc(C(F)(F)F)n2)c1)N(C(=O)c1c(C(F)F)nn(C)c1F)C1CC1 (stereo not drawn) [compound 51]	100	0	84	88	
Cn1nc(C(F)F)c(C(=O)N(Cc2cnc(-n3ccc(C(F)(F)F)n3)c(Cl)c2)C2CC2)c1F [compound 43]	0	0	0	6	
COc1ccc(-n2ccc(C(F)(F)F)n2)cc1C(C)N(C(=O)c1c(C(F)F)nn(C)c1F)C1CC1 (stereo not drawn) [compound 142]					Test B rating (% disease control) [1, 6]: 100%; Test C rating (% disease control) (Septoria tritici; [6]): 97%; Test D rating (% disease control) [2, 6]: 83%; Test E rating (% disease control) [3, 6]: 98%
CC(c1cc(-n2ccc(C(F)(F)F)n2)cc(C(F)(F)F)c1)N(C(=O)c1cn(C)nc1C(F)F)C1CC1 (stereo not drawn) [compound 42]	0	0	0	39	
C#CCOc1cc(-n2ccc(C(F)(F)F)n2)ccc1CN(C(=O)c1c(C(F)F)nn(C)c1F)C1CC1 [compound 62]	99	99	94	99	
Cc1ccc(-n2ccc(C(F)(F)F)n2)cc1CN(C(=O)c1c(C(F)F)nn(C)c1F)C1CC1 [compound 84]					Test B rating (% disease control) [1, 6]: 100%; Test C rating (% disease control) (Septoria tritici; [6]): 98%; Test D rating (% disease control) [2, 6]: 89%; Test E rating (% disease control) [3, 6]: 94%
Cn1cc(C(=O)N(Cc2ccnc(-n3ccc(C(F)(F)F)n3)c2Cl)C2CC2)c(C(F)F)n1 [compound 100]					Test B rating (% disease control) [1, 5]: 0%; Test C rating (% disease control) (Septoria tritici; [5]): 6%; Test D rating (% disease control) [2, 5]: 0%; Test E rating (% disease control) [3, 5]: 0%
Cn1nc(C(F)F)c(C(=O)N(Cc2ccc(-n3ccc(Br)n3)cc2Cl)C2CC2)c1F [compound 47]	100	98	99	99	
Cn1nc(C(F)F)c(C(=O)N(Cc2ccc(-n3ccc(C(F)(F)F)n3)cc2F)C2CC2)c1F [compound 68]	100	91	99	97	
Cn1nc(C(F)F)c(C(=O)N(Cc2ccc(-n3ccc(C(F)(F)F)n3)c(Br)c2)C2CC2)c1F [compound 98]					Test B rating (% disease control) [1, 5]: 64%; Test C rating (% disease control) (Septoria tritici; [5]): 94%; Test D rating (% disease control) [2, 5]: 86%; Test E rating (% disease control) [3, 5]: 84%
Cn1nc(C(F)F)c(C(=O)N(Cc2ccc(-n3nccn3)cc2Cl)C2CC2)c1F [compound 64]	100	100	97	98	
CC(c1ccc(-n2ccc(C(F)(F)F)n2)cc1Cl)N(C(=O)c1c(C(F)F)nn(C)c1F)C1CC1 (stereo not drawn) [compound 72]	100	99	99	100	
CC(c1cc(-n2ccc(C(F)(F)F)n2)ccc1Br)N(C(=O)c1c(C(F)F)nn(C)c1F)C1CC1 (stereo not drawn) [compound 53]	100	74	96	97	
COc1ccc(C(C)N(C(=O)c2c(C(F)F)nn(C)c2F)C2CC2)cc1-n1ccc(C(F)(F)F)n1 (stereo not drawn) [compound 55]	100	61	87	97	
CC(c1cc(-n2ccc(C(F)(F)F)n2)ccc1Cl)N(C(=O)c1c(C(F)F)nn(C)c1F)C1CC1 (stereo not drawn) [compound 135]					Test B rating (% disease control) [1, 6]: 100%; Test C rating (% disease control) (Septoria tritici; [6]): 99%; Test D rating (% disease control) [2, 6]: 80%; Test E rating (% disease control) [3, 6]: 95%
